How the values were obtained:
cancer cell = assay: Cell viability assay (resazurin); type: cell-based; settings: 72 h; 3 days with compound, resazurin fluorescence; cell line not named
How it was run: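 Cells in DMEM GlutaMAX or line-appropriate medium are exposed to compound for 3 days at 37 °C, 5% CO2. Viability is read as resazurin fluorescence (Ex544/Em590) after 2 h incubation. In the 384-well format, cells are seeded onto 11 pre-dispensed concentrations (final DMSO <1%) and read after 3 h resazurin.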

MTH1 = MTH1 (Homo sapiens, UniProt P36639); assay: MTH1 enzymatic assay and IC50 value determination (malachite green, 96- and 384-well format); type: biochemical; settings: hydrolysis of dGTP (100 μM), MTH1 6 nM, pyrophosphatase-coupled malachite green, 15 minutes at 22° C.
How it was run: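 MTH1 (6 nM) hydrolysed dGTP (100 μM) for 15 min at 22 °C in Tris-acetate buffer with Mg2+, DTT, Tween 20 and excess pyrophosphatase, 1% DMSO. Pi detected with malachite green at 630 nm. IC50 from nonlinear 4-parameter fit of 11–12-point dilution series.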

SMILES	IC50 (cancer cell)	IC50 (MTH1)
Cc1c(Cl)cccc1-c1cc(NCCc2cccc([N+](=O)[O-])c2)nc(N)n1 [Example 95, 6-(3-chloro-2-methylphenyl)-4-N-[2-(3-nitrophenyl)ethyl]pyrimidine-2,4-diamine]	< 0.5 µM	< 0.2 µM
Nc1nc(NCCc2ccc(S(N)(=O)=O)cc2)cc(-c2cc(Cl)cc(Cl)c2Cl)n1 [Example 97, 4-[2-[[2-amino-6-(2,3,5-trichlorophenyl)pyrimidin-4-yl]amino]ethyl]benzenesulfonamide]	< 0.5 µM	< 0.2 µM
CC1(C)Nc2cc(NCCNc3cc(-c4cccc(Cl)c4Cl)nc(N)n3)ccc2OC1=O [Example 104, 6-[2-[[2-amino-6-(2,3-dichlorophenyl)pyrimidin-4-yl]amino]ethylamino]-3,3-dimethyl-4H-1,4-benzoxazin-2-one]	< 0.5 µM	< 0.2 µM
Cc1c(Cl)cccc1-c1cc(NCCNc2cccc(S(C)(=O)=O)c2)nc(N)n1 [Example 105, 6-(3-chloro-2-methyl-phenyl)-N4-[2-(3-methylsulfonylanilino)ethyl]pyrimidine-2,4-diamine]	< 0.5 µM	< 0.2 µM
CS(=O)(=O)c1cccc(NCCNc2cc(-c3cccc(Cl)c3Cl)nc(N)n2)c1 [Example 106, 6-(2,3-dichlorophenyl)-N4-[2-(3-methylsulfonylanilino)ethyl]pyrimidine-2,4-diamine]	< 0.5 µM	< 0.2 µM
Cc1c(Cl)cccc1-c1cc(NCCc2ccc(C(=O)N3CCOCC3)cc2)nc(N)n1 [Example 108, [4-[2-[[2-amino-6-(3-chloro-2-methyl-phenyl)pyrimidin-4-yl]amino]ethyl]phenyl]-morpholino-methanone]	< 0.5 µM	< 0.2 µM
Cc1c(Cl)cc(Cl)cc1-c1cc(NCCc2ccc(C(=O)N3CCOCC3)cc2)nc(N)n1 [Example 109, [4-[2-[[2-amino-6-(3,5-dichloro-2-methyl-phenyl)pyrimidin-4-yl]amino]ethyl]phenyl]-morpholino-methanone]	< 0.5 µM	< 0.2 µM
CCNC(=O)Nc1ccc(CCNc2cc(-c3cccc(Cl)c3C)nc(N)n2)cc1 [Example 112, 1-[4-[2-[[2-amino-6-(3-chloro-2-methyl-phenyl)pyrimidin-4-yl]amino]ethyl]phenyl]-3-ethyl-urea]	< 0.5 µM	< 0.2 µM
CCOC(=O)NC(=O)Nc1ccc(CCNc2cc(-c3cccc(Cl)c3C)nc(N)n2)cc1 [Example 115, ethyl N-[[4-[2-[[2-amino-6-(3-chloro-2-methyl-phenyl)pyrimidin-4-yl]amino]ethyl]phenyl]carbamoyl]carbamate]	< 0.5 µM	< 0.2 µM
CCC(C)NC(=O)Nc1ccc(CCNc2cc(-c3cccc(Cl)c3C)nc(N)n2)cc1 (stereo not drawn) [Example 116, 1-[4-[2-[[2-amino-6-(3-chloro-2-methyl-phenyl)pyrimidin-4-yl]amino]ethyl]phenyl]-3-sec-butyl-urea]	< 0.5 µM	< 0.2 µM
Cc1c(Cl)cccc1-c1cc(NCCc2ccc(NC(=O)OCC(C)C)cc2)nc(N)n1 [Example 120, isobutyl N-[4-[2-[[2-amino-6-(3-chloro-2-methyl-phenyl)pyrimidin-4-yl]amino]ethyl]phenyl]carbamate]	< 0.5 µM	< 0.2 µM
Cc1c(Cl)cccc1-c1cc(NCCc2ccc(NC(=O)OCC(C)(C)C)cc2)nc(N)n1 [Example 121, 2,2-dimethylpropyl N-[4-[2-[[2-amino-6-(3-chloro-2-methyl-phenyl)pyrimidin-4-yl]amino]ethyl]phenyl]carbamate]	< 0.5 µM	< 0.2 µM
COCCOC(=O)Nc1ccc(CCNc2cc(-c3cccc(Cl)c3C)nc(N)n2)cc1 [Example 122, 2-methoxyethyl N-[4-[2-[[2-amino-6-(3-chloro-2-methyl-phenyl)pyrimidin-4-yl]amino]ethyl]phenyl]carbamate]	< 0.5 µM	< 0.2 µM
Cc1cccc(-c2cc(NCCNc3ccc(N)nc3)nc(N)n2)c1C [Example 127, 5-N-(2-{[2-amino-6-(2,3-dimethylphenyl)pyrimidin-4-yl]amino}ethyl)pyridine-2,5-diamine]	< 0.5 µM	< 0.2 µM
Cc1c(Cl)cccc1-c1cc(NCCCNc2ccc(C(N)=O)cc2)nc(N)n1 [Example 143, 4-[3-[[2-amino-6-(3-chloro-2-methyl-phenyl)pyrimidin-4-yl]amino]propylamino]benzamide]	< 0.5 µM	< 0.2 µM
CNS(=O)(=O)c1ccc(NCCCNc2cc(-c3cccc(Cl)c3C)nc(N)n2)cc1 [Example 144, 4-[3-[[2-amino-6-(3-chloro-2-methyl-phenyl)pyrimidin-4-yl]amino]propylamino]-N-methyl-benzenesulfonamide]	< 0.5 µM	< 0.2 µM
Cc1c(Cl)cccc1-c1cc(NCCNc2nccc(C(N)=O)n2)nc(N)n1 [Example 146, 2-[2-[[2-amino-6-(3-chloro-2-methyl-phenyl)pyrimidin-4-yl]amino]ethylamino]pyrimidine-4-carboxamide]	< 0.5 µM	< 0.2 µM

Other lines, results leading:

IC50 (cancer cell)	IC50 (MTH1)	SMILES
< 0.5 µM	< 0.2 µM	Cc1cccc(-c2cc(NCCc3ccc(S(N)(=O)=O)cc3)nc(N)n2)c1Cl [Example 96, 4-[2-[[2-amino-6-(2-chloro-3-methyl-phenyl)pyrimidin-4-yl]amino]ethyl]benzenesulfonamide]
< 0.5 µM	< 0.2 µM	Cc1nc2ccc(NCCNc3cc(-c4cccc(Cl)c4C)nc(N)n3)cc2s1 [Example 101, 6-(3-chloro-2-methyl-phenyl)-N4-[2-[(2-methyl-1,3-benzothiazol-6-yl)amino]ethyl]pyrimidine-2,4-diamine]
< 0.5 µM	< 0.2 µM	CC1(C)Nc2cc(NCCNc3cc(-c4cccc(Cl)c4)nc(N)n3)ccc2OC1=O [Example 103, 6-[2-[[2-amino-6-(3-chlorophenyl)pyrimidin-4-yl]amino]ethylamino]-3,3-dimethyl-4H-1,4-benzoxazin-2-one]
< 0.5 µM	< 0.2 µM	Cc1c(Cl)cccc1-c1cc(NCCc2ccc(C(N)=NO)cc2)nc(N)n1 [Example 107, 4-[2-[[2-amino-6-(3-chloro-2-methyl-phenyl)pyrimidin-4-yl]amino]ethyl]-N′-hydroxy-benzamidine]
< 0.5 µM	< 0.2 µM	Cc1c(Cl)cccc1-c1cc(NCCCNc2cccc(S(C)(=O)=O)c2)nc(N)n1 [Example 110, 6-(3-chloro-2-methyl-phenyl)-N4-[3-(3-methylsulfonylanilino)propyl]pyrimidine-2,4-diamine]
< 0.5 µM	< 0.2 µM	Cc1c(Cl)cccc1-c1cc(NCCc2ccc(C(N)=S)cc2)nc(N)n1 [Example 111, 4-[2-[[2-amino-6-(3-chloro-2-methyl-phenyl)pyrimidin-4-yl]amino]ethyl]benzenecarbothioamide]
< 0.5 µM	< 0.2 µM	Cc1c(Cl)cccc1-c1cc(NCCc2ccc(NC(=O)NC(C)(C)C)cc2)nc(N)n1 [Example 113, 1-[4-[2-[[2-amino-6-(3-chloro-2-methyl-phenyl)pyrimidin-4-yl]amino]ethyl]phenyl]-3-tert-butyl-urea]
< 0.5 µM	< 0.2 µM	C=CCNC(=O)Nc1ccc(CCNc2cc(-c3cccc(Cl)c3C)nc(N)n2)cc1 [Example 114, 1-allyl-3-[4-[2-[[2-amino-6-(3-chloro-2-methyl-phenyl)pyrimidin-4-yl]amino]ethyl]phenyl]urea]
< 0.5 µM	< 0.2 µM	CCNC(=S)Nc1ccc(CCNc2cc(-c3cccc(Cl)c3C)nc(N)n2)cc1 [Example 117, 1-[4-[2-[[2-amino-6-(3-chloro-2-methyl-phenyl)pyrimidin-4-yl]amino]ethyl]phenyl]-3-ethyl-thiourea]
< 0.5 µM	< 0.2 µM	Cc1c(Cl)cccc1-c1cc(NCCc2ccc(NC(=O)N3CCOCC3)cc2)nc(N)n1 [Example 118, N-[4-[2-[[2-amino-6-(3-chloro-2-methyl-phenyl)pyrimidin-4-yl]amino]ethyl]phenyl]morpholine-4-carboxamide]
< 0.5 µM	< 0.2 µM	Cc1c(Cl)cccc1-c1cc(NCCc2ccc(NC(=O)OC(C)C)cc2)nc(N)n1 [Example 119, isopropyl N-[4-[2-[[2-amino-6-(3-chloro-2-methyl-phenyl)pyrimidin-4-yl]amino]ethyl]phenyl]carbamate]
< 0.5 µM	< 0.2 µM	CC#CCOC(=O)Nc1ccc(CCNc2cc(-c3cccc(Cl)c3C)nc(N)n2)cc1 [Example 123, but-2-ynyl N-[4-[2-[[2-amino-6-(3-chloro-2-methyl-phenyl)pyrimidin-4-yl]amino]ethyl]phenyl]carbamate]
< 0.5 µM	< 0.2 µM	Cc1c(Cl)cccc1-c1cc(NCCc2ccc(NC#N)cc2)nc(N)n1 [Example 124, [4-[2-[[2-amino-6-(3-chloro-2-methyl-phenyl)pyrimidin-4-yl]amino]ethyl]phenyl]cyanamide]
< 0.5 µM	< 0.2 µM	Cc1cccc(-c2cc(NCCNc3ccnc(N)n3)nc(N)n2)c1C [Example 126, 4-N-(2-{[2-amino-6-(2,3-dimethylphenyl)pyrimidin-4-yl]amino}ethyl)pyrimidine-2,4-diamine]
< 0.5 µM	< 0.2 µM	Cc1cccc(-c2cc(NCCNc3ccc(N)cc3F)nc(N)n2)c1C [Example 128, 1-N-(2-{[2-amino-6-(2,3-dimethylphenyl)pyrimidin-4-yl]amino}ethyl)-2-fluorobenzene-1,4-diamine]
< 0.5 µM	< 0.2 µM	Cc1nc2ccc(NCCCNc3cc(-c4cccc(Cl)c4C)nc(N)n3)cc2s1 [Example 145, 6-(3-chloro-2-methyl-phenyl)-N4-[3-[(2-methyl-1,3-benzothiazol-6-yl)amino]propyl]pyrimidine-2,4-diamine]

Source: US10179790B2 (THOMAS HELLEDAYS STIFTELSE FOR MEDICINSK FORSKNING, priority 2014, dated 2019)
